# Results as given in paper PMC7088215 (The Protein Journal, 2015).
# What was measured:
# SaPriA (PriA helicase) [1] = biological target: T1, SaPriA (PriA helicase) (Staphylococcus aureus, UniProt Q2G266); assay: vanadate-sensitive colorimetric ATPase assay, single concentration of […]; assay type: biochemical; settings: read-out: %
# T1 sequence (Q2G266 1-802): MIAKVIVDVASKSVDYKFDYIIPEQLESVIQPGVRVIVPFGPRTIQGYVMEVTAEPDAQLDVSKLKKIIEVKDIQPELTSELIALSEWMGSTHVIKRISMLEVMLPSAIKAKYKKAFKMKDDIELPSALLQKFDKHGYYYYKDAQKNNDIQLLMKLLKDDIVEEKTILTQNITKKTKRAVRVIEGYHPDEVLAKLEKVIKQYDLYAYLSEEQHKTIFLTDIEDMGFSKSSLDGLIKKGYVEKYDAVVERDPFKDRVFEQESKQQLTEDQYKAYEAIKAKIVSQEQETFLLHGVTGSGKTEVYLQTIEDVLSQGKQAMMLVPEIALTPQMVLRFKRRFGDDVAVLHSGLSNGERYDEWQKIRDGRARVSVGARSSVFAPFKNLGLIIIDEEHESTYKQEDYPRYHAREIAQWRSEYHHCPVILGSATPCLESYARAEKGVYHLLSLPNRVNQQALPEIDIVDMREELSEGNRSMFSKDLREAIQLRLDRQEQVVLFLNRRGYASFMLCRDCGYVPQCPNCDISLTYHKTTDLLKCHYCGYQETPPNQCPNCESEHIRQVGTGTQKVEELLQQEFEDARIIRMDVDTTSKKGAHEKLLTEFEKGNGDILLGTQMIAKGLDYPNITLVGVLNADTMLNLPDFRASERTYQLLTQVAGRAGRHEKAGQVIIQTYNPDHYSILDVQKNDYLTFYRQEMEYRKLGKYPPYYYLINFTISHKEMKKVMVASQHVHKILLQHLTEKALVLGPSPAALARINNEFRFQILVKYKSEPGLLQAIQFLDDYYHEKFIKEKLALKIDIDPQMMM
# SaPriA (PriA helicase) [2] = biological target: T1, SaPriA (PriA helicase); assay: intrinsic fluorescence quenching titration of purified SaPriA; assay type: binding
activity at 35 µM (SaPriA (PriA helicase) [1]),Kd (SaPriA (PriA helicase) [2]),Compound
69%,,O=c1c(O)c(-c2cc(O)c(O)c(O)c2)oc2cc(O)cc(O)c12 [myricetin]
,9.1 ± 3.2 µM,O=c1c(O)c(-c2ccc(O)cc2)oc2cc(O)cc(O)c12 [kaempferol]
